# According to patent US20250034167A1, “HETEROCYCLIC COMPOUNDS AND METHODS OF USE” (AMGEN INC., priority 2021, published 2025):
# Target: His-tagged KRAS G12D protein (Homo sapiens, UniProt P01116, G12D)
# Experiment: biochemical
# Conditions: not given
# His-tagged KRAS G12D protein, sequence (P01116 1-188 isoform P01116-2 G12D): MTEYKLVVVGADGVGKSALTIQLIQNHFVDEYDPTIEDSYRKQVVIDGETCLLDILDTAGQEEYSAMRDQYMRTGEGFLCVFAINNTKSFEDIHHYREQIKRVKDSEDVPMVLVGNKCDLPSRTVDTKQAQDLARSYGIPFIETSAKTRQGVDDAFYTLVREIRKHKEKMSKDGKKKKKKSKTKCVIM
row,Structure (SMILES),IC50 [nM]
1,"CCc1c(F)ccc2cc(O)cc(-c3ncc4c(N5CCC[C@H](C(N)=O)C5)nc(OC[C@@]56CCCN5C[C@H](F)C6)nc4c3F)c12 [Example 90, (S)-1-(7-(8-Ethyl-7-fluoro-3-hydroxynaphthalen-1-yl)-8-fluoro-2-(((2R,7aS)-2-fluorotetrahydro-1H-pyrrolizin-7a(5H)-yl)methoxy)pyrido[4,3-d]pyrimidin-4-yl)piperidine-3-carboxamide]",16
2,"CCc1c(F)ccc2cc(O)cc(-c3ncc4c(N5CCCC(c6c[nH]cn6)C5)nc(OC[C@@]56CCCN5C[C@H](F)C6)nc4c3F)c12 (stereo partly drawn) [Example 106, 4-(4-(3-(1H-Imidazol-4-yl)piperidin-1-yl)-8-fluoro-2-(((2R,7aS)-2-fluorotetrahydro-1H-pyrrolizin-7a(5H)-yl)methoxy)pyrido[4,3-d]pyrimidin-7-yl)-5-ethyl-6-fluoronaphthalen-2-ol]",10
3,"CCc1c(F)ccc2cc(O)cc(-c3ncc4c(N5CCCC(c6ccn[nH]6)C5)nc(OC[C@@]56CCCN5C[C@H](F)C6)nc4c3F)c12 (stereo partly drawn) [Example 107, 4-(4-(3-(1H-Pyrazol-5-yl)piperidin-1-yl)-8-fluoro-2-(((2R,7aS)-2-fluorotetrahydro-1H-pyrrolizin-7a(5H)-yl)methoxy)pyrido[4,3-d]pyrimidin-7-yl)-5-ethyl-6-fluoronaphthalen-2-ol]",8
4,"CCc1c(F)ccc2cc(O)cc(-c3ncc4c(N5CCCC(c6cnco6)C5)nc(OC[C@@]56CCCN5C[C@H](F)C6)nc4c3F)c12 (stereo partly drawn) [Example 108, 5-Ethyl-6-fluoro-4-(8-fluoro-2-(((2R,7aS)-2-fluorotetrahydro-1H-pyrrolizin-7a(5H)-yl)methoxy)-4-(3-(oxazol-5-yl)piperidin-1-yl)pyrido[4,3-d]pyrimidin-7-yl)naphthalen-2-ol]",11
5,"CCc1c(F)ccc2cc(O)cc(-c3ncc4c(N5CC=CC(O)C5)nc(OC[C@@]56CCCN5C[C@H](F)C6)nc4c3F)c12 (stereo partly drawn) [Example 109, 1-(7-(8-Ethyl-7-fluoro-3-hydroxynaphthalen-1-yl)-8-fluoro-2-(((2R,7aS)-2-fluorotetrahydro-1H-pyrrolizin-7a(5H)-yl)methoxy)pyrido[4,3-d]pyrimidin-4-yl)-1,2,3,6-tetrahydropyridin-3-ol]",12
6,"CCc1c(F)ccc2cc(O)cc(-c3ncc4c(N5CCCC(NS(C)(=O)=O)C5)nc(OC[C@@]56CCCN5C[C@H](F)C6)nc4c3F)c12 (stereo partly drawn) [Example 110, N-(1-(7-(8-Ethyl-7-fluoro-3-hydroxynaphthalen-1-yl)-8-fluoro-2-(((2R,7aS)-2-fluorotetrahydro-1H-pyrrolizin-7a(5H)-yl)methoxy)pyrido[4,3-d]pyrimidin-4-yl)piperidin-3-yl)methanesulfonamide]",6
7,"CCc1c(F)ccc2cc(O)cc(-c3ncc4c(N5C[C@H]6COC[C@H]6C5)nc(OC[C@@]56CCCN5C[C@H](F)C6)nc4c3F)c12 [Example 122, 5-Ethyl-6-fluoro-4-(8-fluoro-2-(((2R,7aS)-2-fluorotetrahydro-1H-pyrrolizin-7a(5H)-yl)methoxy)-4-((3aR,6aS)-tetrahydro-1H-furo[3,4-c]pyrrol-5(3H)-yl)pyrido[4,3-d]pyrimidin-7-yl)naphthalen-2-ol]",33
8,"CCc1c(F)ccc2cc(O)cc(-c3ncc4c(N5CCCC(C(C)(C)O)C5)nc(OC[C@@]56CCCN5C[C@H](F)C6)nc4c3F)c12 (stereo partly drawn) [Example 124, 5-Ethyl-6-fluoro-4-(8-fluoro-2-(((2R,7aS)-2-fluorotetrahydro-1H-pyrrolizin-7a(5H)-yl)methoxy)-4-(3-(2-hydroxypropan-2-yl)piperidin-1-yl)pyrido[4,3-d]pyrimidin-7-yl)naphthalen-2-ol]",70
9,"CCc1c(F)ccc2cc(O)cc(-c3ncc4c(N5CCCC[C@H](O)C5)nc(OC[C@@]56CCCN5C[C@H](F)C6)nc4c3F)c12 [Example 130, (S)-1-(7-(8-Ethyl-7-fluoro-3-hydroxynaphthalen-1-yl)-8-fluoro-2-(((2R,7aS)-2-fluorotetrahydro-1H-pyrrolizin-7a(5H)-yl)methoxy)pyrido[4,3-d]pyrimidin-4-yl)azepan-3-ol]",4
10,"CCc1c(F)ccc2cc(O)cc(-c3ncc4c(N5CCCC[C@@H](N)C5)nc(OC[C@@]56CCCN5C[C@H](F)C6)nc4c3F)c12 [Example 131, 4-(4-((R)-3-Aminoazepan-1-yl)-8-fluoro-2-(((2R,7aS)-2-fluorotetrahydro-1H-pyrrolizin-7a(5H)-yl)methoxy)pyrido[4,3-d]pyrimidin-7-yl)-5-ethyl-6-fluoronaphthalen-2-ol]",4
11,"CCc1c(F)ccc2cc(O)cc(-c3ncc4c(N5CCCC(C)(O)CC5)nc(OC[C@@]56CCCN5C[C@H](F)C6)nc4c3F)c12 (stereo partly drawn) [Example 142, 1-(7-(8-Ethyl-7-fluoro-3-hydroxynaphthalen-1-yl)-8-fluoro-2-(((2R,7aS)-2-fluorotetrahydro-1H-pyrrolizin-7a(5H)-yl)methoxy)pyrido[4,3-d]pyrimidin-4-yl)-4-methylazepan-4-ol]",14

# Continued, values first:
row,IC50 [nM],Structure (SMILES)
1,6,"C=C1CCCN(c2nc(OC[C@@]34CCCN3C[C@H](F)C4)nc3c(F)c(-c4cc(O)cc5ccc(F)c(CC)c45)ncc23)CC1 [Example 144, 5-Ethyl-6-fluoro-4-(8-fluoro-2-(((2R,7aS)-2-fluorotetrahydro-1H-pyrrolizin-7a(5H)-yl)methoxy)-4-(4-methyleneazepan-1-yl)pyrido[4,3-d]pyrimidin-7-yl)naphthalen-2-ol]"
2,38,"CCc1c(F)ccc2cc(O)cc(-c3ncc4c(N5CCCC(C)(OC)C5)nc(OC[C@@]56CCCN5C[C@H](F)C6)nc4c3F)c12 (stereo partly drawn) [Example 148, 5-Ethyl-6-fluoro-4-(8-fluoro-2-(((2R,7aS)-2-fluorotetrahydro-1H-pyrrolizin-7a(5H)-yl)methoxy)-4-(3-methoxy-3-methylpiperidin-1-yl)pyrido[4,3-d]pyrimidin-7-yl)naphthalen-2-ol]"
3,11,"CCc1c(F)ccc2cc(O)cc(-c3ncc4c(N5CCCC(C#N)C5)nc(OC[C@@]56CCCN5C[C@H](F)C6)nc4c3F)c12 (stereo partly drawn) [Example 151, 1-(7-(8-Ethyl-7-fluoro-3-hydroxy-naphthalen-1-yl)-8-fluoro-2-(((2R,7aS)-2-fluorotetrahydro-1H-pyrrolizin-7a(5H)-yl)methoxy)pyrido[4,3-d]pyrimidin-4-yl)piperidine-3-carbonitrile]"
4,16,"CCc1c(F)ccc2cc(O)cc(-c3ncc4c(N5C[C@H](O)C[C@H](C(F)(F)F)C5)nc(OC[C@@]56CCCN5C[C@H](F)C6)nc4c3F)c12 [Example 154, (3R,5S)-1-(7-(8-Ethyl-7-fluoro-3-hydroxy-naphthalen-1-yl)-8-fluoro-2-(((2R,7aS)-2-fluorotetrahydro-1H-pyrrolizin-7a(5H)-yl)methoxy)pyrido[4,3-d]pyrimidin-4-yl)-5-(trifluoromethyl) piperidin-3-ol]"
5,76,"CCc1c(F)ccc2cc(O)cc(-c3ncc4c(N5CCCC(S(=O)(=O)C(F)F)C5)nc(OC[C@@]56CCCN5C[C@H](F)C6)nc4c3F)c12 (stereo partly drawn) [Example 161, 4-(4-(3-((Difluoromethyl)sulfonyl)piperidin-1-yl)-8-fluoro-2-(((2R,7aS)-2-fluorotetrahydro-1H-pyrrolizin-7a(5H)-yl)methoxy)pyrido[4,3-d]pyrimidin-7-yl)-5-ethyl-6-fluoronaphthalen-2-ol]"

# Test system: Phosphorylation of ERK1/2 in AsPC-1 cells
# Experiment: Phospho-ERK1/2 MSD Assay
# Assay type: cell-based
# Conditions: Homo sapiens, ASPC1, 2 h, read-out: 2 h p-ERK (AsPC-1 cells), IC50, AsPC-1 cells, 2 h compound treatment
# Protocol: Sixteen hours prior to compound treatment, AsPC-1 cells were seeded in 96-well cell culture plates at a density of 25,000 cells/well and incubated at 37° C., 5% CO2. A compound dose-response titration was diluted in growth media, added to appropriate wells of a cell culture plate, and then incubated at 37° C., 5% CO2 for 2 hours.
row,IC50 [nM],Structure (SMILES)
1,213,"CCc1c(F)ccc2cc(O)cc(-c3ncc4c(N5CCC[C@@](C)(N)C5)nc(OCC56CCCN5CC(F)C6)nc4c3F)c12 (stereo in doubt) [Example 46, 4-(4-((R)-3-Amino-3-methylpiperidin-1-yl)-8-fluoro-2-(((2R,7aS)-2-fluorotetrahydro-1H-pyrrolizin-7a(5H)-yl)methoxy)pyrido[4,3-d]pyrimidin-7-yl)-5-ethyl-6-fluoronaphthalen-2-ol]"
2,1480,"CCc1c(F)ccc2cc(O)cc(-c3ncc4c(N5CCCC(OC)C5)nc(OC[C@@]56CCCN5C[C@H](F)C6)nc4c3F)c12 (stereo partly drawn) [Example 15, 5-Ethyl-6-fluoro-4-(8-fluoro-2-(((2R,7aS)-2-fluorotetrahydro-1H-pyrrolizin-7a(5H)-yl)methoxy)-4-(3-methoxypiperidin-1-yl)pyrido[4,3-d]pyrimidin-7-yl)naphthalen-2-ol]"
3,2860,"CCc1c(F)ccc2cc(O)cc(-c3ncc4c(N5CCC(O)C5)nc(OC[C@@]56CCCN5C[C@H](F)C6)nc4c3F)c12 (stereo partly drawn) [Example 16, 1-(7-(8-Ethyl-7-fluoro-3-hydroxynaphthalen-1-yl)-8-fluoro-2-(((2R,7aS)-2-fluorotetrahydro-1H-pyrrolizin-7a(5H)-yl)methoxy)pyrido[4,3-d]pyrimidin-4-yl)pyrrolidin-3-ol]"
4,344,"CCc1c(F)ccc2cc(O)cc(-c3ncc4c(N5C[C@H](O)CC[C@H]5C)nc(OC[C@@]56CCCN5C[C@H](F)C6)nc4c3F)c12 [Example 36, (3R,6R)-1-(7-(8-Ethyl-7-fluoro-3-hydroxynaphthalen-1-yl)-8-fluoro-2-(((2R,7aS)-2-fluorotetrahydro-1H-pyrrolizin-7a(5H)-yl)methoxy)pyrido[4,3-d]pyrimidin-4-yl)-6-methyl-piperidin-3-ol]"

# Same assay, conditions: read-out: 2 h p-ERK (AsPC-1 cells), IC50; AsPC-1 cells, 2 h compound treatment
row,IC50 [nM],Structure (SMILES)
1,2,"CCc1c(F)ccc2cc(O)cc(-c3ncc4c(N5CCCC(O)(CF)C5)nc(OC[C@@]56CCCN5C[C@H](F)C6)nc4c3F)c12 (single isomer, unassigned) [Example 171]"
2,86,"CCc1c(F)ccc2cc(O)cc(-c3ncc4c(N5CCCC(O)(CF)C5)nc(OC[C@@]56CCCN5C[C@H](F)C6)nc4c3F)c12 (single isomer, unassigned) [Example 172]"
